What was measured:
JAWS II cells = assay: Endocytosis inhibitor pre-treatment of JAWS II cells fed pOVA323+OVA323, CD40 staining; assay type: cell-based, mouse; conditions: pre-treatment before pOVA323+OVA323
Description: FIG. 24. DCs co-take up DNA and protein immunogens via clathrin- and caveolae-mediated endocytosis. A) JAWS II cells were pre-treated with PBS, MDC (50 μM), or filipin (10 μg/ml) for 30 min at 37° C. and then fed Cy5-pOVA323+FITC-OVA323 or Cy5-pVAX+FITC-OVA323 for 24 h. The cells were stained with anti-CD40-PE and analyzed by flow cytometry. Shown is CD40 staining of Cy5/FITC double-positive cells (gated). B) A summary of the experimental results are shown.
FIG. 30. Effect of amiloride on the expression of CD40 in JAWS II cells. JAWS II cells were pre-treated with amiloride (5 mM) for 10 min at 37° C. and then co-treated with Cy5-pOVA323+FITC-OVA323 or Cy5-pVAX+FITC-OVA323 for 24 h. The cells were stained with anti-CD40-PE and analyzed by flow cytometry.
The JAWS II mouse DC line was purchased from the American Type Culture Collection (ATCC, Manassas, Va., USA) and maintained in complete growth medium containing minimum essential medium (MEM) alpha with ribonucleosides, deoxyribonucleosides, 4 mM L-glutamine, and 1 mM sodium pyruvate (Invitrogen Inc., Carlsbad, Calif., USA), and supplemented with 20% fetal bovine serum (ATCC) and 5 ng/ml murine recombinant GM-CSF (R&D Systems, Inc., Minneapolis, Minn., USA). The cells were incubated at 37° C. with 5% CO2 and treated with different antigens (10 μg/ml) such as pVAX, pOVA, OVA, pOVA323 and OVA323 for 24 h. […]

[1] = tested on: BALB/c mice with OVA-induced inflammatory bronchitis; assay: OVA-induced inflammatory bronchitis, adoptive transfer of DCregs; assay type: in vivo; conditions: DCs pretreated with filipin
Description: FIG. 28. Co-immunization-induced DCregs ameliorate inflammatory bronchitis. A) Experimental design: Balb/c mice were injected with 0.1 ml of 1 mg/ml OVA/alum complexes in PBS on days 0 and 7 by i.p. and subsequently challenged with 100 μg OVA intra-tracheally on days 14, 16 and 18 to establish the “model”. Control mice were received with PBS intra-tracheally on days 14, 16 and 18 and designated as the “shame” control. On day 21, 5×10^5 of CD11c+ cells from syngeneic donor mice were transferred into model mice once daily for 3 consecutive days by i.v. (n=3 per group). Prior to the transfer, donor CD11c+ cells purified from spleen of naïve mice were pre-treated with or without filipin and subsequently co-treated with pOVA+OVA or pVAX+OVA for 24 h. On day 14 after the final transfer, serum samples were taken to analyze the levels of IgE or cytokine productions. Sections of lung tissues were made to evaluate disease severity. B) the level of antigen specific IgE was analyzed by ELISA following adoptive transfer of indicated DCs. […] D) Lung sections were examined by H&E staining and recorded under a light microscope at ×100 and ×200 magnification. […]
Lung or ovary were fixed in 4% paraformaldehyde or Bouin's solution and embedded in paraffin blocks. […] Histopathology of lung or ovary was evaluated under a light microscope. […]

Structure (SMILES): CCCCC[C@@H](O)[C@H]1C(=O)O[C@H](C)[C@@H](O)/C=C/C=C/C=C/C=C/C=C(\C)[C@@H](O)C[C@H](O)C[C@H](O)C[C@H](O)C[C@H](O)C[C@H](O)C[C@@H]1O [filipin]
- effect on CD40low phenotype / CD40 expression (JAWS II cells): could prevent the CD40^1′ phenotype, filipin was more effective than MDC
- anti-inflammatory effect of pOVA+OVA treated DCs after inhibitor pre-treatment [1]: absent

— US20120076808A1, “COMBINED ANTIGEN AND DNA VACCINE FOR PREVENTING AND TREATING AUTOIMMUNE DISEASES” (CHINA AGRICULTURAL UNIVERSITY, priority 2010, published 2012)
